The compounds below were run against h5-HT2c (vsv) (Homo sapiens, UniProt P28335, I156V/I160V/N158S) (assay: cell-based).
Sequence of h5-HT2c (vsv) (P28335 33-458 I156V/N158S/I160V limits assumed): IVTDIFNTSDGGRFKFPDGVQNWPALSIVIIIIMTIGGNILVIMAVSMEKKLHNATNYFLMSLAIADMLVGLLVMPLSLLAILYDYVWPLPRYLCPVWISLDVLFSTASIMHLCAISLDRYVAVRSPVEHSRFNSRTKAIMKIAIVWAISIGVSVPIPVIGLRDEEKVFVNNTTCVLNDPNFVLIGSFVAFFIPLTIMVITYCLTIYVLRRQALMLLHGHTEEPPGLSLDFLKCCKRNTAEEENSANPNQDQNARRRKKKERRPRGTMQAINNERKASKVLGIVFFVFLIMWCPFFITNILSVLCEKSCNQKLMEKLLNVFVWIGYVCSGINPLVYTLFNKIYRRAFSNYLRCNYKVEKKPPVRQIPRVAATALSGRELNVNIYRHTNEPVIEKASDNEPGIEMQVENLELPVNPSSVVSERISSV

Row | Structure (SMILES) | EC50 [nM]
1 | FC1(F)CCN(c2ccc3c(n2)CCNCC3)CC1 | 11.4
2 | c1cc2c(nc1N1CCOCC1)CCNCC2 | 63.9
3 | CC(C)(C)c1ccc2c(n1)CCNCC2 | 106
4 | CCN(C)c1nc2c(cc1Br)CCNCC2 | 100
5 | CC(C)C1CNCCc2ccc(N3CCCCC3)nc21 (stereo not drawn) | 65.4
6 | FC1CCN(c2ccc3c(n2)CCNCC3)CC1 | 7.9
7 | COc1nc2c(cc1Br)CCNCC2 | 64.1
8 | Brc1cc2c(nc1N1CCCCC1)CCNCC2 | 192
9 | C=C(C)c1ccc2c(n1)CCNCC2 | 79.1
10 | CCN(C)c1ccc2c(n1)CCNCC2 | 18
11 | c1cc2c(nc1N1C3CCCC1CC3)CCNCC2 | 138
12 | c1cc2c(nc1N1CCCNCC1)CCNCC2 | 262
13 | CN(C)c1ccc2c(n1)CCNCC2 | 213
14 | C[C@@H]1CNCCc2ccc(N3CCCCC3)nc21 | 2.1
15 | CCN(CC)c1ccc2c(n1)CCNCC2 | 77.3
16 | Clc1cc2c(nc1N1CCOCC1)CCNCC2 | 176
17 | c1cc2c(nc1N1CCC3(CC1)OCCO3)CCNCC2 | 290
18 | c1cc2c(nc1N1CCCCCC1)CCNCC2 | 10.2
19 | CC1CNCCc2ccc(N3CCC(F)(F)CC3)nc21 (stereo not drawn) | 29.4
20 | FC1(F)CCCN(c2ccc3c(n2)CCNCC3)CC1 | 24
21 | [O-][S+]1CCN(c2ccc3c(n2)CCNCC3)CC1 | 5.1

Row | Structure (SMILES) | EC50 [nM]
22 | CC1CNCCc2ccc(N3CCCCCC3)nc21 (stereo not drawn) | 6.2
23 | FC1CCN(c2nc3c(cc2Cl)CCNCC3)CC1 | 95.8
24 | Clc1cc2c(nc1N1CCCCC1)CCNCC2 | 74.2
25 | CC1CNCCc2ccc(N3CCC(F)CC3)nc21 (stereo not drawn) | 13.6
26 | c1cc2c(nc1N1CCCCC1)CCNCC2 | 10.6
27 | O=C1CCN(c2ccc3c(n2)CCNCC3)CC1 | 299
28 | c1cc2c(nc1N1CCSCC1)CCNCC2 | 2.3
29 | CC(C)c1ccc2c(n1)C(C)CNCC2 (stereo not drawn) | 295
30 | Clc1cc2c(nc1N1CCCOCC1)CCNCC2 | 67.8
31 | CC1CNCCc2ccc(N3CCCCC3)nc21 (stereo not drawn) | 13.1
32 | CCC1CNCCc2ccc(N3CCOCC3)nc21 (stereo not drawn) | 101
33 | CC(C)C1CNCCc2ccc(N3CCCCCC3)nc21 (stereo not drawn) | 139
34 | CCC1CNCCc2ccc(N(C)CC)nc21 (stereo not drawn) | 35.9
35 | CCN(C)c1ccc2c(n1)[C@H](C)CNCC2 | 8.3
36 | CCN(C)c1ccc2c(n1)C(C)CNCC2 (stereo not drawn) | 29.2
37 | C[C@@H]1CNCCc2ccc(N3CCOCC3)nc21 | 58.1
38 | CC(C)N(C)c1ccc2c(n1)CCNCC2 | 85.4
39 | CC1CNCCc2ccc(N3CCCOCC3)nc21 (stereo not drawn) | 21.7
40 | CCC1CNCCc2ccc(N3CCCCC3)nc21 (stereo not drawn) | 16.4
41 | c1cc2c(nc1N1CCCOCC1)CCNCC2 | 10.5
42 | CC1CNCCc2ccc(N3CCOCC3)nc21 (stereo not drawn) | 47.7

Reference: patent US20090312306A1, “TETRAHYDRO-5H-PYRIDO[2,3-D]AZEPINES AS 5-HT2C LIGANDS” (priority 2006, published 2009)
